Here are results for 10 compounds from patent US7175872B2, “Pyridinium-Betain compounds for use as taste modulators” (Nestec S.A., priority 2002, dated 2007).

What all share (assay type): in vivo
The subject of test [1] is sweet taste of L-alanine. The test is described as follows: Sweet taste detection threshold of L-alanine/Pyridinium-Betaine mixtures (triangle test, sensory panel). The following applies: L-alanine alone. As to the method: • Sensory panel training: […] Sensory analyses were performed in a sensory panel room at 22-25° C. on three different sessions. • Taste thresholds: The taste thresholds of the tastants or mixtures containing basic tastants plus Pyridinium-Betains were determined in a triangle test using Evian® mineral water as the solvent at a defined pH ([…] and H.-D. Belitz, Z. Lebensm. Unters. Forsch. 1975, 159, 65-72). The samples (3 mL) were presented in order of increasing concentrations (serial 1:1 dilutions). The threshold values evaluated in two different sessions were averaged. […] The taste intensities of aqueous (Evian®) solutions containing a basic tastant, such as glucose and MSG, for example, in constant concentrations and the compounds of the general formula (A), for example […], in various concentrations were compared with those of a solution containing the basic tastant only. To achieve this, triangle tests were performed with two glass vials containing the basic tastant in constant concentrations, and one glass vial containing a stepwise 1:1-diluted mixture of basic […]. […] The relative taste strength (taste enhancing factor) of a mixture containing the basic […] was related to the basic tastants glucose, MSG, or other tastants, respectively, as standard substances, and was determined as the ratio of the concentrations c of iso-intensely tasting solutions of the basic tastant, such as glucose (glc), and the mixture containing tastant plus Pyridinium-Betain, […])=[…] […] This taste enhancing effect is illustrated in examples. Besides the two carbohydrates, the sweet amino acid L-alanine was also tested with […]. Again, the best impact on sweet taste perception was found for the mixture at pH 9.0, resulting in an 8-fold lower threshold.

In test [2] the test system is bitter taste of L-phenylalanine. In words: Bitter-blocking effect on L-phenylalanine (detection threshold, 1/1 mixtures). The following applies: for own taste: Pyridinium-Betaine alone; for Taste quality: conc. 32 mmol/L, mixtures 1/1 with L-Phe. How it is done: • Sensory panel training: […] Sensory analyses were performed in a sensory panel room at 22-25° C. on three different sessions. • Taste thresholds: The taste thresholds of the tastants or mixtures containing basic tastants plus Pyridinium-Betains were determined in a triangle test using Evian® mineral water as the solvent at a defined pH ([…] and H.-D. Belitz, Z. Lebensm. Unters. Forsch. 1975, 159, 65-72). The samples (3 mL) were presented in order of increasing concentrations (serial 1:1 dilutions). The threshold values evaluated in two different sessions were averaged. […] The taste intensities of aqueous (Evian®) solutions containing a basic tastant, such as glucose and MSG, for example, in constant concentrations and the compounds of the general formula (A), for example […], in various concentrations were compared with those of a solution containing the basic tastant only. To achieve this, triangle tests were performed with two glass vials containing the basic tastant in constant concentrations, and one glass vial containing a stepwise 1:1-diluted mixture of basic […]. […] The relative taste strength (taste enhancing factor) of a mixture containing the basic […] was related to the basic tastants glucose, MSG, or other tastants, respectively, as standard substances, and was determined as the ratio of the concentrations c of iso-intensely tasting solutions of the basic tastant, such as glucose (glc), and the mixture containing tastant plus Pyridinium-Betain, […])=[…] […] This taste enhancing effect is illustrated in examples. The tasteless Pyridinium-Betaines […] and Gabapyridaine, built from non-[…] amino acids, were tested for their bitter-blocking activity on L-phenylalanine.

Test [3] shares this test system. In words: Bitter intensity ranking with Glypyridaine: L-Phenylalanine. The following applies: no Glypyridaine. From the text: (§1) Instead of working with low concentrated solutions at the bitter threshold, another series of experiments use carried out using more concentrated solutions of various bitter compounds to evaluate the bitter-blocking properties of Pyridinium-Betaines based on non-chiral amino acids. […] The bitter-reducing effect was most pronounced with L-Phenylalanine, the dipeptide H-Gly-Leu-OH, and caffeine.

Test [4] deals with bitter taste of salicine. The test is described as follows: Bitter intensity ranking with Glypyridaine: salicine. The following applies: no Glypyridaine, scale 0-5.
Description: as §1

For test [5], the system named is bitter taste of H-Gly-Leu-OH. In words: Bitter intensity ranking with Glypyridaine: H-Gly-Leu-OH. As to conditions: no Glypyridaine, scale 0-5. The text has this:
Instead of working with low concentrated solutions at the bitter threshold, another series of experiments use carried out using more concentrated solutions of various bitter compounds to evaluate the bitter-blocking properties of Pyridinium-Betaines based on non-chiral amino acids. […] The bitter-reducing effect was most pronounced with L-Phenylalanine, the dipeptide H-Gly-Leu-OH, and caffeine. For example the 10:1 mixture of L-Phenylalanine and […] was weaker in bitterness (score 3) as compared to pure L-Phenylalanine (score 5).

The test system of test [6] is bitter taste of caffeine. In words: Bitter intensity ranking with Glypyridaine: caffeine. The following applies: no Glypyridaine, scale 0-5.
Description: as §1

For test [7], the system named is salty taste of NaCl. In words: Salt-intensity ranking of NaCl/Pyridinium-Betaine mixtures by sensory panel. The following applies: 20 mmol/L each, pH 7.0; for Salt-intensity: scale 0 (not salty) to 5 (very salty), reference NaCl-solution ranked as 1. The text has this:
The salt-intensities of various NaCl/Pyridinium-Betaine mixtures (20 mmol/L each) were compared to a 20 mmol/L NaCl standard solution. The sensory panel was asked to rank the salt-intensities of these solutions on a scale from 0 (not salty) to 5 (very salty), while the reference NaCl-solution was ranked as 1. As listed in Table 6, the most intense salty taste was found in the solution containing NaCl and Alapyridaine, as well as in the triple mixture with L-arginine. A slight impact was found for Argpyridaine and L-arginine.

Test [8] deals with bitter taste of naringine. In words: Bitter intensity ranking with Glypyridaine: naringine. The following applies: no Glypyridaine, scale 0-5.
Description: as §1

In test [9] the test system is salty taste of NaCl. The test is described as follows: Salt taste detection threshold of NaCl/Pyridinium-Betaine mixtures (triangle test, sensory panel). As to the method: • Sensory panel training: […] Sensory analyses were performed in a sensory panel room at 22-25° C. on three different sessions. • Taste thresholds: The taste thresholds of the tastants or mixtures containing basic tastants plus Pyridinium-Betains were determined in a triangle test using Evian® mineral water as the solvent at a defined pH ([…] and H.-D. Belitz, Z. Lebensm. Unters. Forsch. 1975, 159, 65-72). The samples (3 mL) were presented in order of increasing concentrations (serial 1:1 dilutions). The threshold values evaluated in two different sessions were averaged. […] The taste intensities of aqueous (Evian®) solutions containing a basic tastant, such as glucose and MSG, for example, in constant concentrations and the compounds of the general formula (A), for example […], in various concentrations were compared with those of a solution containing the basic tastant only. […] The relative taste strength (taste enhancing factor) of a mixture containing the basic […] was related to the basic tastants glucose, MSG, or other tastants, respectively, as standard substances, and was determined as the ratio of the concentrations c of iso-intensely tasting solutions of the basic tastant, such as glucose (glc), and the mixture containing tastant plus Pyridinium-Betain, […])=[…] […] This taste enhancing effect is illustrated in examples.

Take `C[C@H](N)C(=O)O` [L-alanine, reference compound]: the “threshold of L-alanine in water” value in [1] is reported as “^aThe threshold of L-alanine in water is 12.5 mmol/L”.
For `O=C([O-])CC[n+]1cc(O)ccc1CO` [β-Alapyridaine], in test [2], the own taste result is listed as “tasteless”. Besides, the Taste quality result in test [2] (pH 7.0) is recorded as “complete loss of the bitter taste”.
Consider `N[C@@H](Cc1ccccc1)C(=O)O` [L-Phenylalanine, reference compound], for which the Bitter taste intensity in [3] (L-Phenylalanine 20 mmol/L water, scale 0 no bitterness to 5 strongly bitter) is 2; in test [3] (L-Phenylalanine 40 mmol/L water, scale 0-5), 4; in [3] (L-Phenylalanine 80 mmol/L water, scale 0-5), 5. In addition, the Taste quality result in [2] (pH 7.0) was “bitter”. The Detection threshold in [2] (pH 7.0) was 16.0 mmol/L water.
Turning to `OCc1ccccc1O[C@@H]1O[C@H](CO)[C@@H](O)[C@H](O)[C@H]1O` [Salicine, reference compound], the Bitter taste intensity in [4] (Salicine 0.8 mmol/L water) was found to be 3; in test [4] (Salicine 1.6 mmol/L water), 4.5; in [4] (Salicine 3.2 mmol/L water), 5.
Consider H-Gly-Leu-OH [reference compound], for which the Bitter taste intensity was found to be 2.5 in test [5] (H-Gly-Leu-OH 30 mmol/L water), 3.5 in test [5] (H-Gly-Leu-OH 60 mmol/L water) and 5 in [5] (H-Gly-Leu-OH 120 mmol/L water).
`Cn1c(=O)c2c(ncn2C)n(C)c1=O` [Caffeine, reference compound]: the Bitter taste intensity in [6] (Caffeine 4 mmol/L water) was 3; in test [6] (Caffeine 8 mmol/L water), 4.5; in test [6] (Caffeine 16 mmol/L water) it was 5.
Regarding `N=C(N)NCCC[C@H](N)C(=O)O` [L-Arginine (L-Arg), L-Arginine], in test [7], the Salt-intensity is given as 0.0.
Consider `C[C@@H]1O[C@@H](O[C@H]2[C@H](Oc3cc(O)c4c(c3)O[C@H](c3ccc(O)cc3)CC4=O)O[C@H](CO)[C@@H](O)[C@@H]2O)[C@H](O)[C@H](O)[C@H]1O` [Naringine, reference compound], for which the Bitter taste intensity in test [8] (Naringine 0.06 mmol/L water) is 2.5; in test [8] (Naringine 0.13 mmol/L water), 4; in [8] (Naringine 0.25 mmol/L water), 5.
`O=C([O-])CCC[n+]1cc(O)ccc1CO` [Gabapyridaine]: in test [2], the own taste entry is listed as “tasteless”. In test [2] (pH 7.0), the Taste quality entry is “complete loss of the bitter taste”.
As to `[Cl-].[Na+]` [NaCl, sodium chloride, reference compound], in test [9] (NaCl alone), the “threshold of salt (NaCl) in water” value is given as “^aThe threshold of salt (NaCl) in water is 10.0 mmol/L”. Besides, in [9] (salt and mixtures with Alapyridaine enantiomers (Table 11), pH not stated), the Taste quality entry is “salty”. Moreover, the Detection threshold in test [9] (salty, salt and mixtures with Alapyridaine enantiomers (Table 11), pH not stated) is recorded as 10.0 mmol/kg water. In test [7], the Taste quality result is reported as “salty” and the Salt-intensity came out at 1.0.
